Assay results reported in PubChem BioAssay AID540252 (Sanford-Burnham Center for Chemical Genomics, 2011).
Active and inactive are the calls of the source. No rule for the calls is given here.

Target: glucose-6-phosphate dehydrogenase-6-phosphogluconolactonase (Plasmodium falciparum 3D7)
Assay: PfG6PD enzyme inhibitors, direct NADPH readout, dose response, orthogonal assay, biochemical, end-point NADPH detection (AID 540252)
Settings: purified PfG6PD enzyme

For COc1ccc(S(=O)(=O)/N=C2\C=C(Nc3ccc(O)cc3)C(=O)c3ccccc32)cc1, the IC50 was > 80 µM (inactive).

With COc1c(O)ccc2c1CN1CCc3cc4c(cc3C1C2)OCO4 (stereo not drawn) the IC50 was > 80 µM (inactive).

Cc1cc(C)c2c(=O)n(CC(=O)Nc3cccc(F)c3)sc2n1 was tested, and the IC50 was > 80 µM (inactive).

In the case of Cc1ccnc(-n2sc3ccccc3c2=O)n1, the IC50 is reported as > 80 µM (inactive).

O=C(CSc1nc2cc(Cl)ccc2s1)c1ccco1 was tested, and the IC50 was > 80 µM (inactive).

With CCNc1nc(NC(C)C)nc(NS(=O)(=O)c2ccc(Cl)cc2)n1 the IC50 was > 80 µM (inactive).

With [O-]/[N+](=C\c1ccccc1)c1ccc(Br)cc1 the IC50 was 66 µM.

O=C(Nc1ccc(N2CCOCC2)c(Cl)c1)c1ccc(Cl)cc1 was tested, and the IC50 was > 80 µM (inactive).

Clc1ccc2nc(-c3ccc4c(c3)OCO4)cn2c1 was tested, and the IC50 was > 80 µM (inactive).

In the case of COc1ccccc1N1CSC2=C(C#N)C(c3ccc(SC)cc3)CC(=O)N2C1 (stereo not drawn), the IC50 is reported as > 80 µM (inactive).

Compound COc1cc(N=c2ssnc2Cl)c(OC)cc1Cl has an IC50 of 29.2 µM.

COc1cc(NCCCn2cnc(C(=O)Nc3ccc(C)c(C)c3)n2)cc(OC)c1OC was tested, and the IC50 was > 80 µM (inactive).

O=C(CCc1ccc(O)c(O)c1)N/N=C/c1cc2c(cc1[N+](=O)[O-])OCO2 was tested, and the IC50 was > 80 µM (inactive).

COc1ccc(C(=O)Nc2sc3c(c2C(=O)O)CC(C)(C)OC3)cc1 was tested, and the IC50 was > 80 µM (inactive).

For Cc1ccccc1-n1c(-c2ccc3ccccc3n2)n[nH]c1=S, the IC50 was > 80 µM (inactive).

In the case of C=CCSc1nnc(NC(=O)c2ccc(Cl)nc2)s1, the IC50 is reported as > 80 µM (inactive).

O=[N+]([O-])c1ccc(N/N=C/c2ccc(O)c(O)c2O)c(S(=O)(=O)N2CCOCC2)c1 was tested, and the IC50 was 47.5 µM.

For Oc1cc(-n2cccn2)c(O)cc1-n1cccn1, the IC50 was > 80 µM (inactive).

With Cc1cc(C)nc(/N=C(\N)Nc2ccccc2-c2ccccc2)n1 the IC50 was > 80 µM (inactive).

Work on CC(=O)Nc1ccc2c(=O)n(-c3ccccc3)sc2c1 yielded an IC50 of 13.8 µM.

In the case of COc1cc(NCCCn2ccc(NC(=O)OCc3ccccc3)nc2=O)cc(OC)c1OC, the IC50 is reported as > 80 µM (inactive).

COc1cc(N=c2ssnc2Cl)cc(OC)c1OC gave an IC50 of 54 µM.

With O=C(O)c1ccccc1NS(=O)(=O)c1cccc(-n2sc3ccccc3c2=O)c1 the IC50 was > 80 µM (inactive).

With Cc1cc(SCC(=O)N/N=C/c2ccco2)nc2ccccc12 the IC50 was > 80 µM (inactive).

With Oc1ccc(/C=N/N=C(c2ccccc2)c2ccccc2)c(O)c1O the IC50 was 67.4 µM.

In the case of COc1ccc(C(=O)c2c(C(F)(F)F)oc3c2C(=O)c2ccccc2C3=O)cc1OC, the IC50 is reported as > 80 µM (inactive).

CC(C)c1nnc(NC(=O)c2sc3ccccc3c2Cl)s1 was tested, and the IC50 was > 80 µM (inactive).

CSc1nnc(NC(=O)c2ccc3c(c2)OCO3)s1 was tested, and the IC50 was > 80 µM (inactive).

With CN1C(=O)C(N=Nc2ccc([N+](=O)[O-])cc2)SC1=S (stereo not drawn) the IC50 was > 80 µM (inactive).

For CCN1CCCC1CNC(=O)c1ccc2c(c1)NC(=O)/C(=C\c1ccccc1F)S2 (stereo not drawn), the IC50 was > 80 µM (inactive).

With COc1ccc(N2CSC3=C(C#N)C(c4cc(OC)c(OC)cc4OC)CC(=O)N3C2)c(OC)c1 (stereo not drawn) the IC50 was > 80 µM (inactive).

C=CCOc1c(Cl)cc(CNc2ccc(N(C)C)cc2)cc1OC was tested, and the IC50 was > 80 µM (inactive).

In the case of O=C(COC(=O)c1ccc2c(c1[N+](=O)[O-])C(=O)c1ccccc1C2=O)NC1CC1, the IC50 is reported as > 80 µM (inactive).

With c1cc2c(cc1NC1CCCCCC1)OCO2 the IC50 was > 80 µM (inactive).

For O=c1ccsn1Cc1ccccc1, the IC50 was 55.8 µM.

For COC(=O)CCC(=O)OC1(C)C(=O)C2=CN(c3ccc(OC)cc3)C(c3ccc(OC)cc3)=CC2=C(Br)C1=O (stereo not drawn), the IC50 was > 80 µM (inactive).

For CCOc1cc(NCc2ccccc2)c2ncn(C(C)C)c2c1, the IC50 was > 80 µM (inactive).

In the case of Cc1ccc(S(=O)(=O)N(C)C)cc1NC(=O)CSc1nc2ncc(Cl)cc2[nH]1, the IC50 is reported as > 80 µM (inactive).

In the case of C=CCSc1nc2sc3c(c2c(=O)n1CC)CCc1ccccc1-3, the IC50 is reported as > 80 µM (inactive).

Cc1ccc(NC(=O)c2cc(N3C(=O)C=CC3=O)ccc2Cl)cc1C gave an IC50 of 49.2 µM.

With Cc1cc(=O)[nH]c(N/N=C/c2c(C)nn(-c3ccccc3)c2Cl)n1 the IC50 was 19.9 µM.

With O=c1[nH]sc2cc(F)ccc12 the IC50 was > 80 µM (inactive).

For COc1cc(-c2nnc3n2N=C(c2ccccc2)CS3)cc(OC)c1OC, the IC50 was > 80 µM (inactive).

For Cc1[nH]c2ccccc2c1/C=N/Nc1nncn1N, the IC50 was > 80 µM (inactive).

With Cc1cccc(-n2c(=S)[nH]c3sc4c(c3c2=O)CCc2ccccc2-4)c1 the IC50 was > 80 µM (inactive).

Cc1noc(C(=O)Nc2sc3c(c2C#N)CCC3)c1Cl was tested, and the IC50 was > 80 µM (inactive).

With Cc1ccc(-c2nn(C)c(=O)c3ccccc23)cc1CNC(=O)/C=C/c1ccccc1 the IC50 was > 80 µM (inactive).

With COc1ccc(C(=O)Nc2nnc(S(=O)(=O)N3CCOCC3)s2)cc1 the IC50 was > 80 µM (inactive).

For CCCCCCCCSC1=CC(=O)C(OC)=C(OC)C1=O, the IC50 was > 80 µM (inactive).

For CC1=C(C)CS(=O)N(S(=O)(=O)c2ccc(Cl)cc2)C1 (stereo not drawn), the IC50 was > 80 µM (inactive).

In the case of [O-][N+](=Cc1ccccc1)c1ccc(Cl)cc1, the IC50 is reported as > 80 µM (inactive).

Cc1cc(O)c(C(C)C)cc1N=Cc1ccc([N+](=O)[O-])cc1 was tested, and the IC50 was > 80 µM (inactive).

For Cc1ccc(CNc2ccc(O)cc2)cc1, the IC50 was > 80 µM (inactive).

In the case of COc1cccc(CNc2ccc3[nH]c(=O)[nH]c3c2)c1OCc1ccccc1Cl, the IC50 is reported as > 80 µM (inactive).

With COc1ccc(Cl)cc1NC(=O)c1cccc([N+](=O)[O-])c1O the IC50 was > 80 µM (inactive).

For Cc1nc2ccc(Nc3nc4cc(S(=O)(=O)N5CCOCC5)ccc4o3)cc2s1, the IC50 was > 80 µM (inactive).

With Cc1no[n+]([O-])c1COc1cccc(/C=N/Nc2nncn2N)c1 the IC50 was > 80 µM (inactive).

In the case of Cc1ccc(S(=O)(=O)Nc2nc(C)c(C(=O)N/N=C/c3ccccc3)s2)cc1, the IC50 is reported as > 80 µM (inactive).

For Cc1cc(C)c2c(=O)n(CC(=O)NC3CCCC3)sc2n1, the IC50 was > 80 µM (inactive).

For COc1cc(NCCCn2cnc3c(OCc4ccccc4)ncnc32)cc(OC)c1OC, the IC50 was > 80 µM (inactive).

O=C(O)c1ccc(-n2c(-c3cc(-c4ccco4)[nH]n3)n[nH]c2=S)cc1 was tested, and the IC50 was > 80 µM (inactive).

With Cc1ccc(-c2csc(NC(=O)c3ccccc3F)c2C(=O)O)cc1 the IC50 was > 80 µM (inactive).

COc1cccc2nc3cc(C)c(C)cc3nc12 was tested, and the IC50 was > 80 µM (inactive).

Cc1cc(NC(=O)c2oc3ccccc3c2C)ccc1-n1cnnn1 was tested, and the IC50 was > 80 µM (inactive).

With C[C@H](CO)N1C[C@H](C)[C@@H](CN(C)C(=O)Nc2ccc(C(F)(F)F)cc2)Oc2c(cccc2N(C)C)C1=O the IC50 was > 80 µM (inactive).

In the case of COc1ccc(N2C(=O)/C(=C/c3cccs3)NC2=S)cc1, the IC50 is reported as > 80 µM (inactive).

In the case of O=C(O)CSc1cc(NS(=O)(=O)c2ccc(Cl)cc2)c2ccccc2c1O, the IC50 is reported as > 80 µM (inactive).

For CCN(CC)CCNC(=O)CCCCn1c(=S)[nH]c2c([nH]c3ccc(OC)cc32)c1=O, the IC50 was > 80 µM (inactive).

In the case of C(=N\Nc1nc2ccccc2[nH]1)/c1ccccn1, the IC50 is reported as > 80 µM (inactive).

COC(=O)CCC(=O)Nc1sc(Cc2ccccc2)c(C)c1C(N)=O was tested, and the IC50 was > 80 µM (inactive).

In the case of O=C(Nc1nnc(S(=O)(=O)N2CCCCCC2)s1)c1cccc(Br)c1, the IC50 is reported as > 80 µM (inactive).

With Nc1cc(N)c(OCC(F)(F)F)cc1OCC(F)(F)F the IC50 was > 80 µM (inactive).

With Cc1cc(C)c(S(=O)(=O)Nc2cc(SCC(=O)O)c(O)c3ccccc23)cc1C the IC50 was > 80 µM (inactive).
